Experimental data published in the supplement of paper PMC10307832.

Tests used:
Experiment in all cases: relative viability (nuclei count vs DMSO), 5 days (fraction); higher = more cells survive
NCI-H322M = test system: NCI-H322M
Procedure, shortened: (§1)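 Dosing by pin tool came one day after lung cancer cell lines were seeded in 1536-well plates, using either one drug or a fixed anchor-drug dose plus five library-drug doses (not always all listed) in √10 steps. After 5 days, nuclei were counted on 4× images. Relative viability is treated-well nuclei count divided by vehicle-well nuclei count, and values are medians of duplicate plates.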

NCI-H1792 = test system: NCI-H1792
Procedure, shortened: as §1

PC-14 = test system: PC-14
Procedure, shortened: as §1

NCI-H1755 = test system: NCI-H1755
Procedure, shortened: as §1

LXF-289 = test system: LXF-289
Procedure, shortened: as §1

NCI-H1355 = test system: NCI-H1355
Procedure, shortened: as §1

SW 900 = test system: SW 900
Procedure, shortened: as §1

NCI-H441 = test system: NCI-H441
Procedure, shortened: as §1

NCI-H3122 = test system: NCI-H3122
Procedure, shortened: as §1

NCI-H520 = test system: NCI-H520
Procedure, shortened: as §1

NCI-H522 = test system: NCI-H522
Procedure, shortened: as §1

RERF-LC-KJ = test system: RERF-LC-KJ
Procedure, shortened: as §1

NCI-H460 = test system: NCI-H460
Procedure, shortened: as §1

SK-MES-1 = test system: SK-MES-1
Procedure, shortened: as §1

NCI-H1651 = test system: NCI-H1651
Procedure, shortened: as §1

LCLC-103H = test system: LCLC-103H
Procedure, shortened: as §1

NCI-H661 = test system: NCI-H661
Procedure, shortened: as §1

NCI-H1915 = test system: NCI-H1915
Procedure, shortened: as §1

NCI-H727 = test system: NCI-H727
Procedure, shortened: as §1

NCI-H2347 = test system: NCI-H2347
Procedure, shortened: as §1

CC(=O)O[C@@]12CO[C@@H]1C[C@H](O)[C@@]1(C)C(=O)[C@H](O)C3=C(C)[C@@H](OC(=O)[C@H](O)[C@@H](NC(=O)OC(C)(C)C)c4ccccc4)C[C@@](O)([C@@H](OC(=O)c4ccccc4)[C@H]21)C3(C)C [Docetaxel] + CC(=O)c1c(C)c2cnc(Nc3ccc(N4CCNCC4)cn3)nc2n(C2CCCC2)c1=O [Palbociclib] (partner 0.5 µM)
relative viability (NCI-H322M; first compound 0.0002 µM): 0.469
relative viability (NCI-H322M; first compound 0.000632 µM): 0.448
relative viability (NCI-H322M; first compound 0.002 µM): 0.471
relative viability (NCI-H322M; first compound 0.006325 µM): 0.468
relative viability (NCI-H322M; first compound 0.02 µM): 0.438
relative viability (NCI-H1792; first compound 0.0002 µM): 0.651
relative viability (NCI-H1792; first compound 0.000632 µM): 0.639
relative viability (NCI-H1792; first compound 0.002 µM): 0.543
relative viability (NCI-H1792; first compound 0.006325 µM): 0.367
relative viability (NCI-H1792; first compound 0.02 µM): 0.213
relative viability (PC-14; first compound 0.0002 µM): 0.466
relative viability (PC-14; first compound 0.000632 µM): 0.501
relative viability (PC-14; first compound 0.002 µM): 0.0828
relative viability (PC-14; first compound 0.006325 µM): 0.0351
relative viability (PC-14; first compound 0.02 µM): 0.0299
relative viability (NCI-H1755; first compound 0.0002 µM): 0.466
relative viability (NCI-H1755; first compound 0.000632 µM): 0.489
relative viability (NCI-H1755; first compound 0.002 µM): 0.5
relative viability (NCI-H1755; first compound 0.006325 µM): 0.41
relative viability (NCI-H1755; first compound 0.02 µM): 0.406
relative viability (LXF-289; first compound 0.0002 µM): 0.578
relative viability (LXF-289; first compound 0.000632 µM): 0.569
relative viability (LXF-289; first compound 0.002 µM): 0.337
relative viability (LXF-289; first compound 0.006325 µM): 0.222
relative viability (LXF-289; first compound 0.02 µM): 0.131
relative viability (NCI-H1355; first compound 0.0002 µM): 0.374
relative viability (NCI-H1355; first compound 0.000632 µM): 0.402
relative viability (NCI-H1355; first compound 0.002 µM): 0.29
relative viability (NCI-H1355; first compound 0.02 µM): 0.176
relative viability (SW 900; first compound 0.0002 µM): 0.511
relative viability (SW 900; first compound 0.000632 µM): 0.308
relative viability (SW 900; first compound 0.002 µM): 0.354
relative viability (SW 900; first compound 0.006325 µM): 0.332
relative viability (SW 900; first compound 0.02 µM): 0.264
relative viability (NCI-H441; first compound 0.0002 µM): 0.215
relative viability (NCI-H441; first compound 0.000632 µM): 0.218
relative viability (NCI-H441; first compound 0.002 µM): 0.209
relative viability (NCI-H441; first compound 0.006325 µM): 0.2
relative viability (NCI-H441; first compound 0.02 µM): 0.132
relative viability (NCI-H3122; first compound 0.0002 µM): 0.184
relative viability (NCI-H3122; first compound 0.000632 µM): 0.205
relative viability (NCI-H3122; first compound 0.002 µM): 0.174
relative viability (NCI-H3122; first compound 0.006325 µM): 0.187
relative viability (NCI-H3122; first compound 0.02 µM): 0.114
relative viability (NCI-H520; first compound 0.0002 µM): 0.192
relative viability (NCI-H520; first compound 0.000632 µM): 0.253
relative viability (NCI-H520; first compound 0.002 µM): 0.209
relative viability (NCI-H520; first compound 0.006325 µM): 0.189
relative viability (NCI-H520; first compound 0.02 µM): 0.122
relative viability (NCI-H522; first compound 0.0002 µM): 1.11
relative viability (NCI-H522; first compound 0.000632 µM): 0.795
relative viability (NCI-H522; first compound 0.002 µM): 0.758
relative viability (NCI-H522; first compound 0.006325 µM): 0.565
relative viability (NCI-H522; first compound 0.02 µM): 0.311
relative viability (RERF-LC-KJ; first compound 0.0002 µM): 1.02
relative viability (RERF-LC-KJ; first compound 0.000632 µM): 1.37
relative viability (RERF-LC-KJ; first compound 0.002 µM): 0.381
relative viability (RERF-LC-KJ; first compound 0.006325 µM): 0.249
relative viability (RERF-LC-KJ; first compound 0.02 µM): 0.165
relative viability (NCI-H460; first compound 0.0002 µM): 0.194
relative viability (NCI-H460; first compound 0.000632 µM): 0.0505
relative viability (NCI-H460; first compound 0.002 µM): 0.0387
relative viability (NCI-H460; first compound 0.006325 µM): 0.01
relative viability (NCI-H460; first compound 0.02 µM): 0.0125
relative viability (SK-MES-1; first compound 0.0002 µM): 0.401
relative viability (SK-MES-1; first compound 0.000632 µM): 0.444
relative viability (SK-MES-1; first compound 0.002 µM): 0.382
relative viability (SK-MES-1; first compound 0.006325 µM): 0.303
relative viability (SK-MES-1; first compound 0.02 µM): 0.176
relative viability (NCI-H1651; first compound 0.0002 µM): 0.478
relative viability (NCI-H1651; first compound 0.000632 µM): 0.543
relative viability (NCI-H1651; first compound 0.002 µM): 0.373
relative viability (NCI-H1651; first compound 0.006325 µM): 0.212
relative viability (LCLC-103H; first compound 0.0002 µM): 0.496
relative viability (LCLC-103H; first compound 0.000632 µM): 0.532
relative viability (LCLC-103H; first compound 0.002 µM): 0.5
relative viability (LCLC-103H; first compound 0.006325 µM): 0.598
relative viability (LCLC-103H; first compound 0.02 µM): 0.57
relative viability (NCI-H661; first compound 0.0002 µM): 0.42
relative viability (NCI-H661; first compound 0.000632 µM): 0.448
relative viability (NCI-H661; first compound 0.002 µM): 0.472
relative viability (NCI-H661; first compound 0.006325 µM): 0.377
relative viability (NCI-H661; first compound 0.02 µM): 0.359
relative viability (NCI-H1915; first compound 0.0002 µM): 0.506
relative viability (NCI-H1915; first compound 0.000632 µM): 0.464
relative viability (NCI-H1915; first compound 0.002 µM): 0.219
relative viability (NCI-H1915; first compound 0.006325 µM): 0.149
relative viability (NCI-H1915; first compound 0.02 µM): 0.102
relative viability (NCI-H727; first compound 0.0002 µM): 0.618
relative viability (NCI-H727; first compound 0.000632 µM): 0.64
relative viability (NCI-H727; first compound 0.002 µM): 0.629
relative viability (NCI-H727; first compound 0.006325 µM): 0.538
relative viability (NCI-H727; first compound 0.02 µM): 0.446
relative viability (NCI-H2347; first compound 0.0002 µM): 0.375
relative viability (NCI-H2347; first compound 0.000632 µM): 0.429
relative viability (NCI-H2347; first compound 0.002 µM): 0.408
relative viability (NCI-H2347; first compound 0.006325 µM): 0.373
relative viability (NCI-H2347; first compound 0.02 µM): 0.343
